Results: patent US7060290B1, “Phosphocholine linked prodrug derivatives” (Supergen, Inc., priority 1999, dated 2006)
Entries after “also recorded” stand apart in the source; their conditions may differ.

Key:
[1] = Water/benzene extraction of the tritiated DHEA-phosphocholine reaction product, phases counted by scintillation; assay type: physicochemical
Method: A dehydroepiandrosterone(DHEA)-phosphocholine derivative was synthesized as follows: 1 mg of phosphocholine (calcium salt; Sigma Chemical, St. Louis, Mo.) was dissolved in 0.5 ml of formamide (Cat # S-7503; Lot # 55HO257; Sigma Chemical) and 0.5 ml of pyridine (Cat # P-4036; Lot # 55H1489; Sigma Chemical). 0.025 mCi of (1,2,6,7 ^3H(n)-Dehydroepiandrosterone (Cat # NET814; Lot # 3146097; 89.2 Ci/mmol; Dupont, NEN Products, Boston, Mass.) in 0.025 ml of ethanol was added. The reaction was catalyzed by the addition (as the dry solid) of 5 mg of dicyclohexylcarbodiimide (Cat # D-3129; Lot # 34hO647; Sigma Chemical). The reaction mixture was incubated overnight at room temperature. In the morning, 9 ml of water was added and the mixture extracted 3 times with 10 ml portions of benzene. The benzene extracts were combined and aliquots of both phases were counted in a scintillation counter. The results are set forth below:
The aqueous layer was re-extracted with benzene. The second benzene extraction yielded 272 cpm (0.01 M1) as a confirmation.
Free DHEA starting material would have been extracted quantitatively into benzene with this protocol.

neutral sphingomylenase = assay: Hydrolysis of DHEA-PC by neutral sphingomylenase; assay type: biochemical
Method: DHEA-phosphocholine (DHEA-PC) was synthesized by sequential reaction of DHEA, choline, and water with phosphorous oxychloride. The synthetic product had the same HPLC retention time and the same mass-spectrum as did the endogenous, actual compound. […] When human serum extracts were analyzed, mass fragments were detected at the same retention time as synthetic material.

[2] = system: cutaneous hypersensitivity immune response; assay: DNCB-induced cutaneous contact hypersensitivity (ear swelling) in mice; assay type: in vivo, mice (Balb/c); conditions: for Effect on DNCB-induced cutaneous hypersensitivity immune response: 100 μg/day/mouse subcutaneously, twelve-day study, ear rechallenge with 1% DNCB, swelling on days 7–12; for Effect of dexamethasone on the response to the hormone: co-administered with dexamethasone, days 7–12
Method: The effects of DHEA-PC on cutaneous contact hypersensitivity was studied. In this study, mice (Balb/c) were immunologically challenged with DNCB (2% in ethanol) applied to a 2 cm area on the back. The steroid was injected subcutaneously (100 μg/day/mouse) throughout the twelve-day study period. Ears were rechallenged with DNCB (1% in ethanol) on days 7–12 and swelling was measured daily in order to evaluate the effect on the immune system.

[3] = system: enzyme on lymphocyte cell membrane that cleaves phosphocholine; assay: Lymphocyte cell membrane enzyme that cleaves phosphocholine from other compounds; assay type: cell-based; conditions: lymphocytes; data not shown
From the text: The conjugated therapeutic agents will be at least ten times more water soluble then the original alcohol. This will increase their bioavailability and decrease their metabolism to, e.g., the 3-glycoside in the case of steroids, which should be a major excretion pathway. The decreased glycoside formation will be caused by the presence of the phosphoester at that site. The derivative is not expected to be active prior to hydrolysis of the phospholipid group. […] The activity of this enzyme is stimulated ten-fold by TGF-α (data not shown). Without wishing to be bound by theory, it is believed that use of phospholipid-conjugated antibiotics of the present invention will lead to high concentrations of active agents at the site of an infection by the following mechanism. Lymphocytes are attracted to the site of an infection or inflammation where they release TGF-α, which, in turn, stimulates phospholipid hydrolysis in other subtypes. This same process will lead to local release of an active form of the antibiotic from the phospholipid diester conjugate. Because of the response of the enzyme to local concentrations of TGF-α, there should be a correspondingly high local concentration of the antibiotic. This will lead to effective therapy and lower toxicity.

[4] = J. Med. Chem. 39:2156–2169, 1996; cited from earlier work
[5] = First-pass inactivation in the liver after oral administration; conditions: phosphocholine-derivatized form; stated as believed
From the text: Subsequently, only a fraction of a percent of the administered drug is biologically available for function. […] When the phosphocholine moiety is removed by an esterase, such as phospholipase C, sphingomyelinase, etc., then the parent compound will be available for binding and function in the target tissue. Glucuronidation would only occur on its return to the liver after removal of the phosphocholine moiety.

In the case of `C[C@]12CC[C@H](OP(=O)([O-])OCC[N+](C)(C)C)CC1=CC[C@@H]1[C@@H]2CC[C@]2(C)C(=O)CC[C@@H]12` [DHEA-PC, DHEA-3-Phosphocholine], the “Radioactivity in second benzene extraction” value ([1]; 0.01 M1, re-extraction of the aqueous layer with benzene) is reported as 272 cpm, the “Radioactivity in aqueous phase” value ([1]; 0.01 ml aliquot, after 3 extractions with 10 ml benzene, 3H label) is reported as 10,729 cpm and the “Radioactivity in benzene phase” value ([1]; 0.01 ml aliquot, combined benzene extracts, 3H label) is reported as 1,121 cpm. For the same compound, the “Phase in which the reaction product stays (hydrophilic character)” value ([1]; water/benzene, free DHEA would have been extracted quantitatively into benzene) was “remains in the aqueous phase”, the “Hydrolysis by neutral sphingomylenase” value (neutral sphingomylenase) was “hydrolyzed” and the “Effect on DNCB-induced cutaneous hypersensitivity immune response” value [2] was “potentiated dinitrochlorobenzene-induced sensitization; also recorded: enhanced the cutaneous hypersensitivity immune response”. For the same compound, the “Effect of dexamethasone on the response to the hormone” value (“Effect of dexamethasone” below) [2] was “not suppressed by dexamethasone”.

In the case of “TGF-α: factor released by lymphocytes that stimulates phospholipid hydrolysis”, the “Stimulation of the activity of the phosphocholine-cleaving enzyme” value [3] is reported as “ten-fold”.

For `O=C1N(Cc2ccc(CO)cc2)[C@H](Cc2ccccc2)[C@H](O)[C@@H](O)[C@@H](Cc2ccccc2)N1Cc1ccc(CO)cc1` [DMP-323], the Aqueous solubility [4] is listed as “low”.

In the case of `C[C@]12CC[C@H](OS(=O)(=O)O)CC1=CC[C@@H]1[C@@H]2CC[C@]2(C)C(=O)CC[C@@H]12` [DHEA-sulfate], the “Effect on DNCB-induced cutaneous hypersensitivity immune response” value [2] is reported as “similar, high level response” and the “Effect of dexamethasone” value [2] is reported as “not suppressed by dexamethasone”.

In the case of `C[C@]12CC[C@H](O)CC1=CC[C@@H]1[C@@H]2CC[C@]2(C)C(=O)CC[C@@H]12` [DHEA, dehydroepiandrosterone], the “Effect on DNCB-induced cutaneous hypersensitivity immune response” value [2] is reported as “similar, high level response” and the “Effect of dexamethasone” value [2] is reported as “not suppressed by dexamethasone”.

With `C[C@]12CC[C@@H](OP(=O)([O-])OCC[N+](C)(C)C)C[C@H]1CC[C@@H]1[C@@H]2CC[C@]2(C)C(=O)CC[C@@H]12` the “Fraction not metabolized at each pass through the liver” value [5] was “about 80%”.
